Test results from ChEMBL document CHEMBL4651402, “Screening of ~5500 FDA-approved drugs and clinical candidates for anti-SARS-CoV-2 activity” (2021).
Where a name gives a salt, the structure may show the parent alone.

Tested on: SARS-CoV-2
Test: microbe, parasite or virus in culture
Conditions: Severe acute respiratory syndrome coronavirus 2, Vero C1008, 48 h

Compound	IC50 [µM]	IC50 (read-out: pIC50 (converted)) [µM]
CC(C)(CO)C(O)C(=O)NCCCC(=O)O (centres undefined)	> 20	> 20
NC(=O)CNC1Cc2ccccc2C1	> 20	> 20
O=c1[nH]c2ccccc2n1CCCN1CCC(n2c(=O)[nH]c3cc(Cl)ccc32)CC1 [DOMPERIDONE]	> 20	> 20
CCOc1cc(N)c(Cl)cc1C(=O)NCC1CN(Cc2ccc(F)cc2)CCO1 (centres undefined) [MOSAPRIDE]	> 20	> 20
O=C1C2CC3CC1CC(O)(C3)C2 [IDRAMANTONE]	> 20	> 20
C[C@@H](CN1CCOCC1)C(C(=O)N1CCCC1)(c1ccccc1)c1ccccc1 [LEVOMORAMIDE]	> 20	> 20
CCCn1c(=O)c2[nH]cnc2n(-c2ccc(Cl)cc2)c1=O [AROFYLLINE]	> 20	> 20
CC[C@H](O)C(C[C@@H](C)N(C)C)(c1ccccc1)c1ccccc1 [BETAMETHADOL]	> 20	> 20
CNCC(O)c1cccc(NS(C)(=O)=O)c1 (centres undefined) [AMIDEPHRINE MESYLATE]	> 20	> 20
COc1cc(-c2ccc(/N=N/c3ccc4c(S(=O)(=O)O)cc(S(=O)(=O)O)c(N)c4c3O)c(OC)c2)ccc1/N=N/c1ccc2c(S(=O)(=O)O)cc(S(=O)(=O)O)c(N)c2c1O [CHICAGO SKY BLUE]	> 20	> 20
NC1CCCCC1 [CYCLOHEXYLAMINE]	> 20	> 20
O=C(Nc1ccc(C(=O)N2C[C@H]3COCCN3Cc3ccccc32)c(Cl)c1)c1ccccc1-c1ccccc1	> 20	> 20
CC(C)=CCOc1cc(NC(=S)c2ccoc2C)ccc1Cl [UC 781]	> 20	> 20
CN1CCN(C2=Nc3ccccc3Sc3ccc(Cl)cc32)CC1 [CLOTHIAPINE]	> 20	> 20
Cc1cc(C)c(CNC(=O)c2cc(Cl)c3c(c2C)OC(C)([C@H]2CC[C@H](N(C)C)CC2)O3)c(=O)[nH]1 (some centres undefined)	> 20	> 20
CCCC(CCC)C(N)=O [VALPROMIDE]	> 20	> 20
CC(=O)[C@H]1CC[C@H]2[C@@H]3C[C@H](C)C4=CC(=O)CC[C@]4(C)[C@H]3[C@@H](O)C[C@]12C [MEDRYSONE]	> 20	> 20
NC(=O)c1csc(C2OC(CO)C(O)C2O)n1 (centres undefined)	> 20	> 20
COc1ccc2c3c1O[C@H]1[C@@H](O)CCC4[C@@H](C2)N(C)CC[C@@]341 (some centres undefined)	> 20	> 20

Compound	IC50 [µM]	IC50 (read-out: pIC50 (converted)) [µM]
CCOC(=O)NC1=C(N2CC2)C(=O)C(NC(=O)OCC)=C(N2CC2)C1=O [DIAZIQUONE]	> 20	> 20
CN(C)C(=O)CCSC(SCCC(=O)O)c1cccc(/C=C/c2ccc3ccc(Cl)cc3n2)c1 (centres undefined) [MK-571]	> 20	> 20
Cn1c([N+](=O)[O-])cnc1COC(N)=O [RONIDAZOLE]	> 20	> 20
Cn1cc(C(=O)[C@@H]2CCc3[nH]cnc3C2)c2ccccc21 [RAMOSETRON]	> 20	> 20
O=C1c2ccccc2C(=O)C1c1ccc(F)cc1 [FLUINDIONE]	> 20	> 20
CC(C)OC(=O)[C@@H](C)NP(=O)(OC[C@H]1O[C@@H](n2ccc(=O)[nH]c2=O)[C@](C)(O)[C@@H]1O)Oc1ccccc1 (some centres undefined)	> 20	> 20
CC(=O)OC1CCC2(C)C3CC=C4C5CC(C)(C)CCC5(C(=O)O)CC[C@@]4(C)C3(C)CC[C@H]2C1(C)C (some centres undefined)	> 20	> 20
N#CC1(c2ccc(NC(=O)c3cccnc3NCc3ccncc3)cc2)CCCC1 [RIVOCERANIB]	> 20	> 20
Clc1cccc(C(c2ccc3[nH]cnc3c2)n2ccnc2)c1 (centres undefined) [LIAROZOLE]	> 20	> 20
CCOC(=O)c1c(N)sc2c1CCN(Cc1ccccc1)C2 [TINORIDINE]	> 20	> 20
CN[C@@H]1CC[C@@H](c2ccccc2)c2ccccc21 [TAMETRALINE]	> 20	> 20
CCN(CC)C(=O)/C(C#N)=C/c1cc(O)c(O)c([N+](=O)[O-])c1 [ENTACAPONE]	> 20	> 20
CCCCCCCCCC1(C)OCC(COC(N)=O)O1 (centres undefined) [DIOXAMATE]	> 20	> 20
O=C(C1CCCCC1)N1CC(=O)N2CCCc3ccccc3C2C1 (centres undefined)	> 20	> 20
CC[N+]1(CC)CCC(OC(=O)C(O)(c2ccccc2)c2ccccc2)C1 (centres undefined) [BENZILONIUM]	> 20	> 20
Cc1cc(-c2ccccc2)nnc1NCCN1CCOCC1 [MINAPRINE]	> 20	> 20
CCC(=O)O[C@]1(C(=O)SCF)[C@H](C)C[C@H]2[C@@H]3C[C@H](F)C4=CC(=O)C=C[C@]4(C)[C@@]3(F)[C@@H](O)C[C@@]21C [FLUTICASONE PROPIONATE]	> 20	> 20
COc1ccc2cc(CCC(C)=O)ccc2c1 [NABUMETONE]	> 20	> 20
